According to paper PMC4769301, “Affinity Enhancement by Ligand Clustering Effect Inspired by Peptide Dendrimers−Shank PDZ Proteins Interactions” (PLoS ONE, 2016):
Values joined by “and” are separate entries in the source; they are usually repeats but may differ in a detail not shown here. Identical values can stand only once. Like-named read-outs stand apart in the source and are kept apart here. Numbered stars: 1 amine (or outer) side, 2 acyl side, 3 side chain; on linkers, the order of the positions; unused ones are H or OH. Bridge positions count the residues as written; N and C are the ends. Ends that are not written are not given here. Peptide text beside a SMILES is read from it. I, II: the chains in the order shown. X1 = O=C1CC([*:1])C(=O)N1CCN(CCN1C(=O)CC([*:2])C1=O)CCN1C(=O)CC([*:3])C1=O; X3 = O=C1CC([*:1])C(=O)N1CCOCCOCCOCCN1C(=O)CC([*:2])C1=O; X2 = O=C1CC([*:1])C(=O)N1CCOCCOCCN1C(=O)CC([*:2])C1=O

T1: Shank1 PDZ (Rattus norvegicus, UniProt Q9WV48)
T1 construct: His tag; made in house; host or cells: E. coli BL21
T1 sequence (Q9WV48 653-765): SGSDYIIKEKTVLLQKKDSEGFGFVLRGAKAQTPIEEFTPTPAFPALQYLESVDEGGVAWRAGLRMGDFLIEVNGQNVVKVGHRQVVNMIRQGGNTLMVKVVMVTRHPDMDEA

T2: Shank3 PDZ (Mus musculus, UniProt Q4ACU6)
T2 construct: His tag; made in house; host or cells: E. coli BL21
T2 sequence (Q4ACU6 533-665): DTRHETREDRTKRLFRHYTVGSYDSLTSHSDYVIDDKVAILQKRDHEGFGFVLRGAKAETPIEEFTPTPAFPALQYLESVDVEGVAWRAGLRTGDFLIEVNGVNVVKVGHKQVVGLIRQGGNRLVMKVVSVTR

T3: p1 (monomeric βPIX peptide) (Rattus norvegicus)
T3 chain: CGSSGDPAWDETNL

T4: p2 (dimeric peptide, BM(PEG)2) (also: dimer via Cys-BM(PEG)2 linker)
T4 chain: Ac-CGSSGDPAWDETNL

T5: dimeric peptide BM(PEG)3 (also: dimer via Cys-BM(PEG)3 linker)
T5 chain: Ac-CGSSGDPAWDETNL

T6: p3 (trimeric peptide, TMEA) (also: trimer via Cys-TMEA linker)
T6 chain: Ac-CGSSGDPAWDETNL

B1: Shank1 PDZ 653-765 (protein)
chain: T1 sequence (Q9WV48 653-765)
B2: Shank3 PDZ 533-665 (protein)
chain: T2 sequence (Q4ACU6 533-665)

How the values were obtained:
Shank1 PDZ [1] = biological target: T1, Shank1 PDZ; assay: Isothermal titration calorimetry, Shank1 PDZ; assay type: binding
Description: (§1) Gene encoding the Shank1 PDZ (Swiss-Prot accession number Q9WV48.1, residues 653–765) was synthesized by GenScript Inc., and digested by Nde I and Xho I restriction enzymes and ligated into pET28a vector to generate pET28-Shank1 PDZ plasmid (S1A Fig). The plasmid pET.M.3C Shank3 PDZ (Swiss-Prot accession number Q4ACU6.3, residues 533–665) was a gift from Prof. Mingjie Zhang’s group from Division of Life Science, Hong Kong University of Science and Technology. The recombinant plasmid pET28-Shank1 PDZ and pET.M.3C Shank3 PDZ were transformed into E. coli BL21 cells for protein production. Mono-clones were pre-cultured overnight at 37°C, and then cultures were added to new media, shaken at 37 °C until optical density at 600 nm reached 0.6–0.8. Then isopropyl β-D-1-thiogalactopyranoside was added at final concentration 1 mM to induce protein overexpression, the culture was shaken overnight at 16°C.
(§2) Prior to use, lyophilized peptides were dissolved in the storage buffer (50 mM sodium phosphate, 200 mM NaCl, pH 7.4). All the peptides and protein solution were filtered through 0.1 μm membrane, and their concentrations were adjusted according to experiments requirement: except for the binding pair p1 ligand and Shank1 PDZ, the proteins concentration were between 30–40 μM, ligands concentration were between 300–400 μM; and for the binding pair p1 ligand and Shank1 PDZ, the affinity was very low so that protein concentration was adjusted to about 315 μM and p1 ligand concentration was adjusted to about 3.14 mM to get accuracy affinity data. All the solutions were extensively degassed just before titration. Titrations were performed at 25°C by MicroCal VP-ITC (Malvern), and data were analyzed by Origin software (Origin Lab) and fitted to single-binding-site model.

Shank3 PDZ = biological target: T2, Shank3 PDZ; assay: Isothermal titration calorimetry, Shank3 PDZ; assay type: binding
Description: as §1, §2

Shank1 PDZ [2] = biological target: T1, Shank1 PDZ; assay: Native mass spectrometry, Shank1 PDZ; assay type: binding; conditions: for complexes with higher stoichiometry such as 2:1 or 3:1: native MS, protein/peptide ratio 4:1, protein in excess, within the detection limit of native MS
Experimental: Prior to the experiment, the protein solution was extensively dialyzed at 4°C against 150mM ammonium acetate. During the dialysis, Shank1 PDZ yielded no precipitate, while Shank3 PDZ was largely precipitated out. Increasing the concentration of ammonium acetate to 200–500 mM couldn’t alleviate precipitation. Lyophilized peptides were also dissolved in the 150 mM ammonium acetate. All the peptides and protein solution were filtered through 0.1 μm membrane, and their concentrations were adjusted according to experiments requirement. The protein and peptide were mixed as the corresponding ratio and incubated at room temperature for 20 minutes.
Positive ion electrospray ionization mass spectra were acquired on a Micromass Q-Tof micro mass spectrometer (Waters), with a nanoESI source using EconoTips. The capillary voltage was adjusted in the range of 1.2–2.2 kV until optimal ion signals were obtained. The cone voltage of the Q-TOF was set at 20 V, and the ion source temperature was set at 40°C.

Shank1 PDZ [3] = biological target: T1, Shank1 PDZ; assay: Surface plasmon resonance, immobilized Shank1 PDZ; assay type: binding; conditions: for kon: pH 7.4, read-out: association rate constant kon; for koff: pH 7.4, read-out: dissociation rate constant koff
Experimental: Prior to use, lyophilized peptides were dissolved in the storage buffer (50 mM sodium phosphate, 200 mM NaCl, pH 7.4) at high concentration and diluted to required concentration using running buffer (HBS-EP: 0.01 M HEPES pH 7.4, 0.15 M NaCl, 3 mM EDTA, 0.005% v/v Surfactant P20). All the peptides and protein solution were filtered through 0.1 μm membrane, and their concentrations were adjusted according to experiments requirement: for ligand p1, concentration series of 10.8 μM, 21.6 μM, 43.2 μM, 86.5μM, 173μM, 346μM were used; for ligand p2, concentrations series of 10 μM, 20 μM, 40 μM, 80 μM, 160 μM, 320 μM were used; for ligand p3, concentrations series of 2.63 μM, 5.27 μM, 10.5 μM, 21.1 μM, 42.1 μM, 84.3 μM were used. All sample solution and running buffer were extensively degassed just before titration. Shank1 PDZ protein was coupled on CM5 chip using EDC/NHS method.
Running were performed at 25°C on Biacore 3000 (GE), and data were processed by BIAevaluation software and fitted to steady state affinity model and 1:1 Langmuir binding model. 1:1 Langmuir binding model which show kinetics data was analyzed by BIAevaluation software. Steady state affinity model which show affinity data was analyzed by Origin software using the following equation: Req=KACRmax/1+KACn

[4] = biological target: T3, p1 (monomeric βPIX peptide); assay: ITC
[5] = biological target: T4, p2 (dimeric peptide, BM(PEG)2); assay: ITC
dimeric peptide BM(PEG)3 = biological target: T5, dimeric peptide BM(PEG)3; assay: ITC
[6] = biological target: T6, p3 (trimeric peptide, TMEA); assay: ITC
[7] = biological target: T3, p1 (monomeric βPIX peptide); assay: native MS
[8] = biological target: T4, p2 (dimeric peptide, BM(PEG)2); assay: native MS
[9] = biological target: T6, p3 (trimeric peptide, TMEA); assay: native MS
[10] = biological target: T4, p2 (dimeric peptide, BM(PEG)2); assay: SPR kinetics
[11] = biological target: T6, p3 (trimeric peptide, TMEA); assay: SPR kinetics
[12] = biological target: T3, p1 (monomeric βPIX peptide); assay: SPR steady state
[13] = biological target: T4, p2 (dimeric peptide, BM(PEG)2); assay: SPR steady state
[14] = biological target: T6, p3 (trimeric peptide, TMEA); assay: SPR steady state
[15] = biological target: T4, p2 (dimeric peptide, BM(PEG)2); assay: ITC (diluted ligand)
[16] = biological target: T6, p3 (trimeric peptide, TMEA); assay: ITC (diluted ligand)

Row | Molecule | Kd (Shank1 PDZ [1]) | Kd (Shank3 PDZ) | Kd (Shank1 PDZ [2]) | complexes with higher stoichiometry such as 2:1 or 3:1 (Shank1 PDZ [2]) | kon (Shank1 PDZ [3]) | koff (Shank1 PDZ [3]) | Kd [4] | Kd [5] | Kd [6] | other results
1 | CC(=O)N[C@@H](CSC1CC(=O)N(CCOCCOCCOCCN2C(=O)CC(SC[C@H](NC(C)=O)C(=O)NCC(=O)N[C@@H](CO)C(=O)N[C@@H](CO)C(=O)NCC(=O)N[C@@H](CC(=O)O)C(=O)N3CCC[C@H]3C(=O)N[C@@H](C)C(=O)N[C@@H](Cc3c[nH]c4ccccc34)C(=O)N[C@@H](CC(=O)O)C(=O)N[C@@H](CCC(=O)O)C(=O)N[C@H](C(=O)N[C@@H](CC(N)=O)C(=O)N[C@@H](CC(C)C)C(=O)O)[C@@H](C)O)C2=O)C1=O)C(=O)NCC(=O)N[C@@H](CO)C(=O)N[C@@H](CO)C(=O)NCC(=O)N[C@@H](CC(=O)O)C(=O)N1CCC[C@H]1C(=O)N[C@@H](C)C(=O)N[C@@H](Cc1c[nH]c2ccccc12)C(=O)N[C@@H](CC(=O)O)C(=O)N[C@@H](CCC(=O)O)C(=O)N[C@H](C(=O)N[C@@H](CC(N)=O)C(=O)N[C@@H](CC(C)C)C(=O)O)[C@@H](C)O (some centres unmarked) [dimeric peptide BM(PEG)3] (I: Ac-CGSSGDPAWDETNL-OH / II: Ac-CGSSGDPAWDETNL-OH; linker I:1-II:1 via X3) | 13.7 ± 0.7 µM |  |  |  |  |  |  |  |  | 
2 | CC(=O)N[C@@H](CSC1CC(=O)N(CCOCCOCCN2C(=O)CC(SC[C@H](NC(C)=O)C(=O)NCC(=O)N[C@@H](CO)C(=O)N[C@@H](CO)C(=O)NCC(=O)N[C@@H](CC(=O)O)C(=O)N3CCC[C@H]3C(=O)N[C@@H](C)C(=O)N[C@@H](Cc3c[nH]c4ccccc34)C(=O)N[C@@H](CC(=O)O)C(=O)N[C@@H](CCC(=O)O)C(=O)N[C@H](C(=O)N[C@@H](CC(N)=O)C(=O)N[C@@H](CC(C)C)C(=O)O)[C@@H](C)O)C2=O)C1=O)C(=O)NCC(=O)N[C@@H](CO)C(=O)N[C@@H](CO)C(=O)NCC(=O)N[C@@H](CC(=O)O)C(=O)N1CCC[C@H]1C(=O)N[C@@H](C)C(=O)N[C@@H](Cc1c[nH]c2ccccc12)C(=O)N[C@@H](CC(=O)O)C(=O)N[C@@H](CCC(=O)O)C(=O)N[C@H](C(=O)N[C@@H](CC(N)=O)C(=O)N[C@@H](CC(C)C)C(=O)O)[C@@H](C)O (some centres unmarked) [p2] (I: Ac-CGSSGDPAWDETNL-OH / II: Ac-CGSSGDPAWDETNL-OH; linker I:1-II:1 via X2) | 16.6 µM and 18 µM | 5.9 ± 0.4 µM | ~5.3 µM | not observed | 65200 M⁻¹ s⁻¹ | 1.12 s⁻¹ |  |  |  | 
3 | GSGSGDPAWDETNL-OH [p1] |  |  |  |  |  |  |  |  |  | Kd (Shank1 PDZ [1]; MicroCal VP-ITC, 25°C, 50 mM sodium phosphate, 200 mM NaCl, pH 7.4, single-binding-site model, [p1] = 4 mM/[Shank1 PDZ] = 400 μM, [p2] = 326 μM/43 μM, [p3] = 354 μM/35 μM (Fig 3A), read-out: dissociation constant Kd (ITC)): 41 ± 1 µM; Kd (Shank3 PDZ; MicroCal VP-ITC, 25°C, 50 mM sodium phosphate, 200 mM NaCl, pH 7.4, single-binding-site model, [p1] = 406 μM/[Shank3 PDZ] = 40 μM, [p2] = 400 μM/30 μM, [p3] = 315 μM/34 μM, read-out: Kd (ITC)): 24 ± 2 µM; Kd (Shank1 PDZ [2]; rough estimation from peak intensities, 1:1 mixture, 150 mM ammonium acetate, 65 μM each, gas-phase measurement, read-out: dissociation constant estimated from native MS peak intensity): ~13 µM; Kd (Shank1 PDZ [3]; Biacore 3000, 25°C, HBS-EP pH 7.4, Shank1 PDZ coupled on CM5 chip, steady state affinity model, n = 1, read-out: dissociation constant (SPR, steady state affinity model)): 45 ± 6 µM
4 | I: Ac-CGSSGDPAWDETNL-OH / II: Ac-CGSSGDPAWDETNL-OH / III: Ac-CGSSGDPAWDETNL-OH (linker I:1-II:1-III:1 via X1) [p3] | 8.1 µM and 6.5 µM | 1.9 ± 0.1 µM | ~4.5 µM | not observed | 78900 M⁻¹ s⁻¹ | 0.353 s⁻¹ |  |  |  | difference in kon (Shank1 PDZ [3]; SPR, 1:1 Langmuir binding model, ligand p3 compared with ligand p2): about 1.2 fold
5 | B1 |  |  |  |  |  |  | 41 µM | 16.6 µM | 8.1 µM | Kd (dimeric peptide BM(PEG)3): 13.7 µM; Kd [7]: ~13 µM; Kd [8]: ~5.3 µM; Kd [9]: ~4.5 µM; Kd [10]: 17.1 µM; Kd [11]: 4.48 µM; Kd [12]: 45 µM; Kd [13]: 19 µM; Kd [14]: 6 µM; Kd [15]: 18 µM; Kd [16]: 6.5 µM
6 | B2 |  |  |  |  |  |  | 24 µM | 5.9 µM | 1.9 µM | 
